Assay results: patent US20250075176A1, “COMPOSITIONS COMPRISING HISTONE […] INHIBITORS OR REVERSE TRANSCRIPTASE INHIBITORS AND USE THEREOF” (FOREVE LABS LTD., priority 2022, published 2025)
Values belong to the compound of their own block, whether it stands above or below them.

Assays:
H3K4me3 = test: In situ staining for H3K4me3 in treated young oocytes; assay type: cell-based, mouse; details: TSA 100 nm
Method: (§1) In situ immunofluorescence: Permeabilization was performed using 0.1% Triton X-100. Cells were cultured in PBS contains 5% BSA for blocking, and first and secondary antibodies were diluted in 0.1 Tween 20 (P9416)/PBS containing 5% BSA. The immune-stained cells were mounted in Vectashield (H-1000) mounting medium containing 80 nM of Hoechst (33342) and sealed on a slide using an Imaging spacer (GBL654002).
(§2) Imaging and quantification: Oocytes were imaged using the Ti-Eclipse Nikon system, with an Andor Zyla nsc05537 camera. […] Every cell was imaged at multiple planes. In order to analyze the images in a quantitatively, a projection of maximum intensity was created. To measure staining intensity, every assessed region was normalized to an equal-size region in the background (outside the area of interest). The intensity score was generated by dividing the intensity in the area of interest by that of the background.
(§3) Drug treatments: Ovaries were collected and dissected in L-15 medium supplemented with 200 um IBMX to prevent meiotic progression as described above. Prophase I arrested oocytes were collected using a Stripper as described above. […]

H3K9me2 [1] = test: H3K9me2 staining in treated young oocytes; assay type: cell-based, mouse; details: TSA 100 nm, 4 h arrest then 18 h until MII
Method: Chromosome spread and immunofluorescence: Prophase I arrested oocytes were collected from ovaries as above and incubated for 6 hours to reach the first prophase or for 17 hours to reach second meiosis prophase as described above. Matured oocytes were washed in M2 medium and then in acidic Tyrode's Solution to remove the Zona Pellucida. 15 min before the desired time for chromosome spread, oocytes were kept in hypotonic solution, composed of FBS (F7524) diluted in DDW in 1:1 ratio. Oocytes were then spread in spreading solution (1% PFA buffered to 9.2 pH, supplemented with 0.15% Triton X-100and 0.03% […]) on Superfrost plus slides (32090003). To assess ploidy, prophase II spreads were stained with Hoechst to visualize chromatin and CREST to visualize the centromeres, and the imaged chromosome were manually counted.
In situ immunofluorescence: Permeabilization was performed using 0.1% Triton X-100. […]
Imaging and quantification: Oocytes were imaged using the Ti-Eclipse Nikon system, with an Andor Zyla nsc05537 camera. […] In order to analyze the images in a quantitatively, a projection of maximum intensity was created. To measure staining intensity, every assessed region was normalized to an equal-size region in the background (outside the area of interest). […]

H3K27Ac = test: In situ staining for H3K27Ac in treated young oocytes; assay type: cell-based, mouse; details: TSA 100 nm, 4 h arrest then 18 h until MII
Method: as §1, §2, §3

Rad51 = Rad51 nuclear localization (DNA damage response) in treated young oocytes; assay type: cell-based, mouse; details: TSA 100 nm
Method: as §1, §2, §3

L1-encoded ORF1p = test: In situ immunofluorescence for L1-ORF1p in treated young oocytes; assay type: cell-based, mouse; details: TSA 100 nm
Method: as §1, §2, §3

old mouse oocytes = test: In vitro maturation of old mouse oocytes in medium supplemented with drug; assay type: cell-based; details: for ability to induce maturation (first polar body extrusion and proper chromosome division): IVM media (a-MEM) with inhibitor, 24 hours, curcumin positive control, FIG. 9C-9D
Source text: (§4) Mouse oocyte in vitro maturation: After Euthanasia, ovaries were collected and dissected in L-15 medium (011151A) and supplemented with 200 um IBMX (17018) to prevent meiotic progression. Prophase I arrested oocytes were identified by visualization of the typical germinal vesicle and collected under a binocular using a Stripper (MD-MXL3-STR-CGR). After collection, oocytes were transferred into a-MEM medium (22561021) supplemented with IBMX covered with Mineral oil (M8410-11) to prevent evaporation, for recovery time of 25 min at 37° in a 5% CO2 incubator, and then washed in IBMX free a-MEM medium to initiate meiosis. The oocytes were incubated in a-MEM under oil in the incubator for 6 hours for prophase I or incubated for 19 hours for metaphase II. To assess maturation rates, oocytes were incubated for 19 hours after release and then fixed and stained by Hoechst to examine the entry into the second meiotic division. See below amendments for drug treatments.
Drug treatments: Ovaries were collected and dissected in L-15 medium supplemented with 200 um IBMX to prevent meiotic progression as described above. Prophase I arrested oocytes were collected using a Stripper as described above. After collection, oocytes were transferred to a-MEM medium supplemented with IBMX +the desired drug covered with Mineral oil to prevent evaporation, for 4 hours at 37° in a 5% CO2 incubator (Since Chaetocin and IBMX have a cross reactivity with each other, the pause was not performed in Chaetocin experiments). After the pause, oocytes were washed in IBMX-free a-MEM that contains the drug to initiate meiosis. 19 hours after oocytes were released from IBMX, oocytes were fixed in PFA, permeabilized, and sealed as described above. Chaetocin is a hazarzous substance. For biosafety reasons, Chaetocin supplemented plates and matched controls were placed in a sealed chamber during incubation time.
It was next tested if similar results could be achieved without genetic manipulation. Old oocytes were treated with two different naturally occurring histone acetyltransferase (HAT) inhibitors: curcumin and garcinol. As a negative control, oocytes were given vehicle only. […] Next, a broader panel of naturally occurring HAT inhibitors were tested along with another reverse transcriptase (RT) inhibitor (FIG. 9C). As before, old oocytes were incubated in IVM media (a-MEM) supplemented with the inhibitors for 24 hours and maturation was measured. Oocytes with both first polar body extrusion and proper division of chromosomes (as evaluated by Hoechst staining) were considered as mature. Curcumin was used as a positive control.

[2] = Acidity of the molecule and effect on medium pH; assay type: physicochemical
Source text: The pH of the medium used was around 7.3 with buffering capacity between 6.9 and 7.6. […] This acidity interfered with maturation and indeed in the case of the two strongly acidic molecules inhibited it. Medium with a greater buffering capacity or a different concentration of these acidic molecules will allow for HAT inhibition induced maturation improvement.

human oocytes = test: Human oocyte IVM with HAT or RT inhibitor supplementation; assay type: cell-based; details: oocytes from young fertility preservation patients, Sage medium with LH and FSH, FIG. 11
Method: Human IVM protocol: Germinal vesicle (GV) oocytes were subjected to IVM in a Sage medium (A1-rad Medical) supplemented with 0.075 IU/mL luteinizing hormone (LH) and 0.075 IU/mL follicle stimulating hormone (FSH) overnight. HAT and/or RT inhibitors were added to the overnight culture in some experiments. All naked oocytes that were found were transferred for up to 48 hours of incubation in oocyte maturation medium (Sage In-Vitro Fertilization) supplemented with 0.075 IU/mL human menopausal gonadotropin (hMG) (Menopur, Ferring Pharmaceuticals). HAT and/or RT inhibitors were added to the 48-hour culture in some experiments. After 24 hours of incubation, the media was searched for mature oocytes that were immediately frozen. The media were then incubated for another 24 hours and searched again for other mature oocytes.
To also look at non-arrested human oocytes, we investigated the behavior of another cohort of human oocytes extracted from patients undergoing gonadotoxic treatment and therefore undergoing fertility preservation. In these cases, when hormonal induction and oocyte extraction are not possible due to the young age of the patient or social reasons, ovary surgical extraction is performed. After extraction, ovaries are dissected in medium in the IVF lab, and ovary tissue is cryopreserved. After remission, ovary tissue can be transplanted, and IVF performed. […]

PCAF = PCAF (Homo sapiens, UniProt Q92831); details: cited from earlier work
young mouse oocytes = test: In vitro maturation of young mouse oocytes treated with epigenetic drugs; assay type: cell-based; details: 2-month-old oocytes, Chaetocin 0.5 μM 18 h, FIG. 7A
Source text: as §4, §3

older oocytes = details: aged animals, previously shown; cited from earlier work
H3K9me2 [3] = test: In situ staining intensity for H3K9me2 (heterochromatin) in old oocytes; assay type: cell-based, mouse; details: aged oocytes cultured with SRT-1720, FIG. 8G
Method: Mouse oocytes collection for in situ immunofluorescence: After Euthanasia, ovaries were collected and dissected in M2 medium (M7167). Oocytes were collected from pool of 3 animals at least (numbers of each experiment are noted in legend). Prophase I arrested oocytes were collected under a binocular using a Stripper and washed in hyaluronidase (H4272-30 MG) to remove granulosa cells and acidic Tyrode's Solution (T1788) to remove the Zona Pellucida. The oocytes were fixed using PFA 4% (15710) for 20 min, and then quenched in PBS supplemented with 10 mM glycine and 1% BSA.
as §1
Imaging and quantification: Oocytes were imaged using the Ti-Eclipse Nikon system, with an Andor Zyla nsc05537 camera. […] Every cell was imaged at multiple planes. In order to analyze the images in a quantitatively, a projection of maximum intensity was created. To measure staining intensity, every assessed region was normalized to an equal-size region in the background (outside the area of interest). […]

Sequence of PCAF (Q92831 whole entry, species assumed): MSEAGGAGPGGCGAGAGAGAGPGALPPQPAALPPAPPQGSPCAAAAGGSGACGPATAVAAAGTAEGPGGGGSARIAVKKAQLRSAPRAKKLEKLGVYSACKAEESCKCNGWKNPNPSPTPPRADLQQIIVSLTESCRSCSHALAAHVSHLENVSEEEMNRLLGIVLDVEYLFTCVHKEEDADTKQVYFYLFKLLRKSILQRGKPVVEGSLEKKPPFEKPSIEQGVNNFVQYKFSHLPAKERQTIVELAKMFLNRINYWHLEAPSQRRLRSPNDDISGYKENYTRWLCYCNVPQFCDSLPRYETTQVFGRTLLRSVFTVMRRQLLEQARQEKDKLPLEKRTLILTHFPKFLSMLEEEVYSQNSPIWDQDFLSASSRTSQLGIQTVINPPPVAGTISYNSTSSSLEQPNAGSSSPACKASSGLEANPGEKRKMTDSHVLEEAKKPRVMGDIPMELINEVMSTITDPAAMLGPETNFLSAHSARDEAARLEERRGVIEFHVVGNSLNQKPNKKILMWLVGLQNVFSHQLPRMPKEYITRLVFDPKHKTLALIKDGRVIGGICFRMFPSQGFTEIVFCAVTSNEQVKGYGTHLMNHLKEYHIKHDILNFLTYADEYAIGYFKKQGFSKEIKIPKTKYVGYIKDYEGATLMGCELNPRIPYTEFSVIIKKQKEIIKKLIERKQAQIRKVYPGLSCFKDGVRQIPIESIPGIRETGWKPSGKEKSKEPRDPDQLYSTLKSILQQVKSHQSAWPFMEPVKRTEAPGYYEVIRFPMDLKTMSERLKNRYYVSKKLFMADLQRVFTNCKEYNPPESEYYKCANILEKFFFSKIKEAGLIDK

Structure (SMILES): CC(/C=C/C(=O)NO)=C\[C@@H](C)C(=O)c1ccc(N(C)C)cc1 [TSA, Trichostatin A]
staining for H3K4me3 (H3K4me3): unchanged | H3K9me2 in situ staining (H3K9me2 [1]): decrease | H3K27Ac in situ staining (H3K27Ac): increase | DNA damage response (Rad51 nuclear localization) (Rad51): elevated | L1-ORF1p localization (L1-encoded ORF1p): accumulates in nuclei | L1-encoded ORF1p overall signal level (L1-encoded ORF1p): do not show a L1-encoded ORF1p elevation

acidity [2]: more weakly acidic
Structure (SMILES): O=C(O[C@@H]1Cc2c(O)cc(O)cc2O[C@@H]1c1cc(O)c(O)c(O)c1)c1cc(O)c(O)c(O)c1 [EGCG, Epigallocatechin gallate]
ability to induce maturation (first polar body extrusion and proper chromosome division) (old mouse oocytes; old oocytes): did not produce increased maturation

Structure (SMILES): COc1cc(/C=C/C(=O)CC(=O)/C=C/c2ccc(O)c(OC)c2)ccc1O [Curcumin]
maturation rate at the highest dose (old mouse oocytes; old oocytes, curcumin 10 um, FIG. 9A): over 80% | maturation rate versus vehicle (old mouse oocytes; old oocytes, vehicle-only negative control, FIG. 9A-9B): dose dependent increase | maturation ability of human oocytes (human oocytes): did not impair their maturation ability and even increased it | PCAF inhibition (PCAF): do not

Structure (SMILES): CC1=CC(=O)c2c(O)cccc2C1=O [Plumbagin]
ability to induce maturation (first polar body extrusion and proper chromosome division) (old mouse oocytes; old oocytes): comparable to curcumin | PCAF inhibition (PCAF): do not

Structure (SMILES): CN1C(=O)[C@@]23C[C@]4([C@]56C[C@@]78SS[C@@](CO)(C(=O)N7[C@H]5Nc5ccccc56)N(C)C8=O)c5ccccc5N[C@@H]4N2C(=O)[C@]1(CO)SS3 [Chaetocin]
reduction in oocytes that properly mature (young mouse oocytes): 18%

acidity [2]: highly acidic
Structure (SMILES): CCCCCCCCCCCCCCCc1cccc(O)c1C(=O)O [anacardic acid]
ability to induce maturation (first polar body extrusion and proper chromosome division) (old mouse oocytes; old oocytes): did not produce increased maturation | PCAF inhibition (PCAF): strongly inhibit

Structure (SMILES): NC(=O)c1ccc[n+]([C@@H]2O[C@H](COP(=O)([O-])OP(=O)(O)OC[C@H]3O[C@@H](n4cnc5c(N)ncnc54)[C@H](O)[C@@H]3O)[C@@H](O)[C@H]2O)c1 [NAD+, nicotinamide adenine dinucleotide]
oocyte quality (older oocytes): rejuvenated oocyte quality

Structure (SMILES): CC(C)=CCC[C@]1(C)C=Cc2c(O)c3c(c(CC=C(C)C)c2O1)O[C@]12C(=C[C@@H]4C[C@H]1C(C)(C)O[C@@]2(C/C=C(/C)C(=O)O)C4=O)C3=O [gambogic acid]
ability to induce maturation (first polar body extrusion and proper chromosome division) (old mouse oocytes; old oocytes): did not produce increased maturation | acidity [2]: highly acidic | PCAF inhibition (PCAF): strongly inhibit

Structure (SMILES): O=C(Nc1ccccc1-c1cn2c(CN3CCNCC3)csc2n1)c1cnc2ccccc2n1 [SRT-1720]
maturation ability of treated cells (old mouse oocytes; aged oocytes cultured with SRT-1720, FIG. 8H): recovered maturation ability | heterochromatin (H3K9me2 staining intensity) (H3K9me2 [3]): heterochromatin elevation
